SMILES strings stand for the structures.

The conditions of the data set: particle size by volume, laser light diffraction, dry dispersion.

Source text: Particle size determination of Levonorgestrel
Equipment • Diffractometer of laser light, Mastersizer 3000 or equivalent • Micro analytical balance or semimicro
Weigh approximately 0.2-0.3g of the drug substance, and introduce to the dry accessory.
Dispersion Unit: MAZ3500 and cell (AD01)
Refraction index: 1.5/1.5 (red light/blue light)
Distribution Format: • Single mode • Enhanced sensitivity • Fine powder (activate)
Background run time: 10 s
Filter obscuration: 0.5-6%
Sampler settings: • Vibration feed rate: 50% • Dispersive air pressure: 2.5 bar

In the case of `C#C[C@]1(O)CC[C@H]2[C@@H]3CCC4=CC(=O)CC[C@@H]4[C@H]3CC[C@@]21CC` [Ultra-micronized levonorgestel, Levonorgestrel], the D10 came out at 0.2 μm, the D50 turned out to be 1.0 μm and the D90 amounted to 1.1 μm.
